Source: PubChem BioAssay (NCI)
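Following 48 hours of exposure in 96-well plates, responses at five concentrations were used to interpolate endpoints linearly. The concentration for 50% growth inhibition is given as GI50. TGI denotes the concentration required for complete inhibition of growth.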

Key:
Assay in all cases: growth of human tumour cells (NCI), 48 h
786-0 renal = tested on: 786-0 renal
A498 renal = tested on: A498 renal
A549 NSCLC = tested on: A549 NSCLC
ACHN renal = tested on: ACHN renal
CAKI-1 renal = tested on: CAKI-1 renal
CCRF-CEM leukemia = tested on: CCRF-CEM leukemia
COLO 205 colon = tested on: COLO 205 colon
DU-145 prostate = tested on: DU-145 prostate
EKVX NSCLC = tested on: EKVX NSCLC
HCC-2998 colon = tested on: HCC-2998 colon
HCT-116 colon = tested on: HCT-116 colon
HCT-15 colon = tested on: HCT-15 colon
HL-60(TB) leukemia = tested on: HL-60(TB) leukemia
HOP-62 NSCLC = tested on: HOP-62 NSCLC
HOP-92 NSCLC = tested on: HOP-92 NSCLC
HS 578T breast = tested on: HS 578T breast
HT29 colon = tested on: HT29 colon
IGROV1 ovarian = tested on: IGROV1 ovarian
KM12 colon = tested on: KM12 colon
LOX IMVI melanoma = tested on: LOX IMVI melanoma
M14 melanoma = tested on: M14 melanoma
MALME-3M melanoma = tested on: MALME-3M melanoma
MCF7 breast = tested on: MCF7 breast
MDA-MB-231 breast = tested on: MDA-MB-231 breast
MDA-MB-435 = tested on: MDA-MB-435
MDA-N = tested on: MDA-N
NCI-H23 lung = tested on: NCI-H23 lung
NCI-H460 lung = tested on: NCI-H460 lung
NCI-H522 lung = tested on: NCI-H522 lung
NCI/ADR-RES ovarian = tested on: NCI/ADR-RES ovarian
OVCAR-3 ovarian = tested on: OVCAR-3 ovarian
OVCAR-4 ovarian = tested on: OVCAR-4 ovarian
OVCAR-5 ovarian = tested on: OVCAR-5 ovarian
OVCAR-8 ovarian = tested on: OVCAR-8 ovarian
PC-3 prostate = tested on: PC-3 prostate
RXF 393 renal = tested on: RXF 393 renal
SF-268 CNS = tested on: SF-268 CNS
SF-295 CNS = tested on: SF-295 CNS
SF-539 CNS = tested on: SF-539 CNS
SK-MEL-2 melanoma = tested on: SK-MEL-2 melanoma
SK-MEL-28 melanoma = tested on: SK-MEL-28 melanoma
SK-MEL-5 melanoma = tested on: SK-MEL-5 melanoma
SK-OV-3 ovarian = tested on: SK-OV-3 ovarian
SN12C renal = tested on: SN12C renal
SNB-19 CNS = tested on: SNB-19 CNS
SNB-75 CNS = tested on: SNB-75 CNS
SR leukemia = tested on: SR leukemia
SW-620 colon = tested on: SW-620 colon
T-47D breast = tested on: T-47D breast
TK-10 renal = tested on: TK-10 renal
U251 CNS = tested on: U251 CNS
UACC-257 melanoma = tested on: UACC-257 melanoma
UACC-62 melanoma = tested on: UACC-62 melanoma
UO-31 renal = tested on: UO-31 renal
K-562 leukemia = tested on: K-562 leukemia
MOLT-4 leukemia = tested on: MOLT-4 leukemia
NCI-H226 lung = tested on: NCI-H226 lung
RPMI-8226 leukemia = tested on: RPMI-8226 leukemia

`CCCn1c2c(c3ccccc3c1=O)C(=O)c1cc3c(cc1-2)OCO3` was tested, and the GI50 (786-0 renal) was 77.2 µM, the TGI (786-0 renal) was > 100 µM and the GI50 (A498 renal) was > 100 µM. For the same compound, the TGI (A498 renal) was > 100 µM, the GI50 (A549 NSCLC) was > 100 µM and the TGI (A549 NSCLC) was > 100 µM. The GI50 (ACHN renal) was > 100 µM, the TGI (ACHN renal) was > 100 µM and the GI50 (CAKI-1 renal) was 97.3 µM. The TGI (CAKI-1 renal) was > 100 µM, the GI50 (CCRF-CEM leukemia) was > 100 µM and the TGI (CCRF-CEM leukemia) was > 100 µM. The GI50 (COLO 205 colon) was > 100 µM, the TGI (COLO 205 colon) was > 100 µM and the GI50 (DU-145 prostate) was > 100 µM. The TGI (DU-145 prostate) was > 100 µM, the GI50 (EKVX NSCLC) was 91.2 µM and the TGI (EKVX NSCLC) was > 100 µM. The GI50 (HCC-2998 colon) was 16.9 µM, the TGI (HCC-2998 colon) was 99.6 µM and the GI50 (HCT-116 colon) was 30.5 µM. The TGI (HCT-116 colon) was > 100 µM, the GI50 (HCT-15 colon) was > 100 µM and the TGI (HCT-15 colon) was > 100 µM. For the same compound, the GI50 (HL-60(TB) leukemia) was > 100 µM, the TGI (HL-60(TB) leukemia) was > 100 µM and the GI50 (HOP-62 NSCLC) was > 100 µM. For the same compound, the TGI (HOP-62 NSCLC) was > 100 µM, the GI50 (HOP-92 NSCLC) was 159 nM and the TGI (HOP-92 NSCLC) was 0.458 µM. The GI50 (HS 578T breast) was > 100 µM, the TGI (HS 578T breast) was > 100 µM and the GI50 (HT29 colon) was > 100 µM. For the same compound, the TGI (HT29 colon) was > 100 µM, the GI50 (IGROV1 ovarian) was 44.4 µM and the TGI (IGROV1 ovarian) was > 100 µM. The GI50 (KM12 colon) was 31.5 µM, the TGI (KM12 colon) was > 100 µM and the GI50 (LOX IMVI melanoma) was > 100 µM. The TGI (LOX IMVI melanoma) was > 100 µM, the GI50 (M14 melanoma) was > 100 µM and the TGI (M14 melanoma) was > 100 µM. For the same compound, the GI50 (MALME-3M melanoma) was > 100 µM, the TGI (MALME-3M melanoma) was > 100 µM and the GI50 (MCF7 breast) was 9.39 µM. For the same compound, the TGI (MCF7 breast) was > 100 µM, the GI50 (MDA-MB-231 breast) was > 100 µM and the TGI (MDA-MB-231 breast) was > 100 µM. The GI50 (MDA-MB-435) was > 100 µM, the TGI (MDA-MB-435) was > 100 µM and the GI50 (MDA-N) was > 100 µM. For the same compound, the TGI (MDA-N) was > 100 µM, the GI50 (NCI-H23 lung) was > 100 µM and the TGI (NCI-H23 lung) was > 100 µM. For the same compound, the GI50 (NCI-H460 lung) was 26.8 µM, the TGI (NCI-H460 lung) was > 100 µM and the GI50 (NCI-H522 lung) was 60.1 µM. The TGI (NCI-H522 lung) was > 100 µM, the GI50 (NCI/ADR-RES ovarian) was 76.9 µM and the TGI (NCI/ADR-RES ovarian) was > 100 µM. For the same compound, the GI50 (OVCAR-3 ovarian) was 21 µM, the TGI (OVCAR-3 ovarian) was > 100 µM and the GI50 (OVCAR-4 ovarian) was > 100 µM. The TGI (OVCAR-4 ovarian) was > 100 µM, the GI50 (OVCAR-5 ovarian) was > 100 µM and the TGI (OVCAR-5 ovarian) was > 100 µM. The GI50 (OVCAR-8 ovarian) was > 100 µM, the TGI (OVCAR-8 ovarian) was > 100 µM and the GI50 (PC-3 prostate) was 71.1 µM. The TGI (PC-3 prostate) was > 100 µM, the GI50 (RXF 393 renal) was > 100 µM and the TGI (RXF 393 renal) was > 100 µM. For the same compound, the GI50 (SF-268 CNS) was > 100 µM, the TGI (SF-268 CNS) was > 100 µM and the GI50 (SF-295 CNS) was 44.8 µM. For the same compound, the TGI (SF-295 CNS) was > 100 µM, the GI50 (SF-539 CNS) was > 100 µM and the TGI (SF-539 CNS) was > 100 µM. For the same compound, the GI50 (SK-MEL-2 melanoma) was > 100 µM, the TGI (SK-MEL-2 melanoma) was > 100 µM and the GI50 (SK-MEL-28 melanoma) was > 100 µM. The TGI (SK-MEL-28 melanoma) was > 100 µM, the GI50 (SK-MEL-5 melanoma) was > 100 µM and the TGI (SK-MEL-5 melanoma) was > 100 µM. For the same compound, the GI50 (SK-OV-3 ovarian) was > 100 µM, the TGI (SK-OV-3 ovarian) was > 100 µM and the GI50 (SN12C renal) was > 100 µM. For the same compound, the TGI (SN12C renal) was > 100 µM, the GI50 (SNB-19 CNS) was > 100 µM and the TGI (SNB-19 CNS) was > 100 µM. For the same compound, the GI50 (SNB-75 CNS) was > 100 µM, the TGI (SNB-75 CNS) was > 100 µM and the GI50 (SR leukemia) was 6.1 µM. For the same compound, the TGI (SR leukemia) was > 100 µM, the GI50 (SW-620 colon) was 83.2 µM and the TGI (SW-620 colon) was > 100 µM. The GI50 (T-47D breast) was > 100 µM, the TGI (T-47D breast) was > 100 µM and the GI50 (TK-10 renal) was 86.9 µM. The TGI (TK-10 renal) was > 100 µM, the GI50 (U251 CNS) was > 100 µM and the TGI (U251 CNS) was > 100 µM. For the same compound, the GI50 (UACC-257 melanoma) was > 100 µM, the TGI (UACC-257 melanoma) was > 100 µM and the GI50 (UACC-62 melanoma) was > 100 µM. The TGI (UACC-62 melanoma) was > 100 µM, the GI50 (UO-31 renal) was > 100 µM and the TGI (UO-31 renal) was > 100 µM.
`N=C1N(c2ccccc2)C(=S)C(=Nc2ccccc2)N1c1ccccc1` showed a TGI (786-0 renal) of 22.2 µM, a TGI (A498 renal) of 31.8 µM and a TGI (A549 NSCLC) of 42.1 µM. The TGI (ACHN renal) was 20.6 µM, the TGI (CAKI-1 renal) was 27.7 µM and the TGI (CCRF-CEM leukemia) was > 20.7 µM. For the same compound, the TGI (COLO 205 colon) was 12.1 µM, the TGI (DU-145 prostate) was 31.2 µM and the TGI (EKVX NSCLC) was 53.1 µM. It also gave a TGI (HCC-2998 colon) of 30.7 µM, a TGI (HCT-116 colon) of 7.26 µM and a TGI (HCT-15 colon) of 21.9 µM. It also gave a TGI (HL-60(TB) leukemia) of 10.9 µM, a TGI (HOP-62 NSCLC) of 34.1 µM and a TGI (HOP-92 NSCLC) of 22.9 µM. It also gave a TGI (HS 578T breast) of 47.4 µM, a TGI (HT29 colon) of 18.3 µM and a TGI (IGROV1 ovarian) of 25.9 µM. It also gave a TGI (K-562 leukemia) of 9.59 µM, a TGI (KM12 colon) of 27.2 µM and a TGI (LOX IMVI melanoma) of 5.14 µM. The TGI (M14 melanoma) was 23.6 µM, the TGI (MALME-3M melanoma) was 26.6 µM and the TGI (MCF7 breast) was 3.46 µM. For the same compound, the TGI (MDA-MB-231 breast) was 20.9 µM, the TGI (MDA-MB-435) was 3.94 µM and the TGI (MDA-N) was 6.1 µM. For the same compound, the TGI (MOLT-4 leukemia) was 7.55 µM, the TGI (NCI-H226 lung) was 36.3 µM and the TGI (NCI-H23 lung) was 18 µM. For the same compound, the TGI (NCI-H460 lung) was 31 µM, the TGI (NCI-H522 lung) was 7.72 µM and the TGI (NCI/ADR-RES ovarian) was 38.6 µM. The TGI (OVCAR-3 ovarian) was 9.55 µM, the TGI (OVCAR-4 ovarian) was 26.8 µM and the TGI (OVCAR-5 ovarian) was 32.1 µM. The TGI (OVCAR-8 ovarian) was 16.7 µM, the TGI (PC-3 prostate) was 24.8 µM and the TGI (RPMI-8226 leukemia) was 13.9 µM. For the same compound, the TGI (RXF 393 renal) was 25 µM, the TGI (SF-268 CNS) was 29.7 µM and the TGI (SF-295 CNS) was 30.5 µM. The TGI (SF-539 CNS) was 24.9 µM, the TGI (SK-MEL-2 melanoma) was 12.4 µM and the TGI (SK-MEL-28 melanoma) was 31.7 µM. The TGI (SK-MEL-5 melanoma) was 6.21 µM, the TGI (SK-OV-3 ovarian) was 33 µM and the TGI (SN12C renal) was 27.8 µM. For the same compound, the TGI (SNB-19 CNS) was 30.4 µM, the TGI (SNB-75 CNS) was 29.4 µM and the TGI (SR leukemia) was > 48.4 µM. It also gave a TGI (SW-620 colon) of 13 µM, a TGI (T-47D breast) of 9.21 µM and a TGI (TK-10 renal) of 28.2 µM. It also gave a TGI (U251 CNS) of 27.3 µM, a TGI (UACC-257 melanoma) of 7.52 µM and a TGI (UACC-62 melanoma) of 13.5 µM. It also gave a TGI (UO-31 renal) of 16.7 µM.
